Source: US11673876B2, “Substituted aminobenzyl heteroaryl compounds as EGFR and/or PI3K inhibitors” (Mekanistic Therapeutics LLC, priority 2020, dated 2023)

How the values were obtained:
[1] = Metabolic stability in human liver microsomes; type: in vitro ADME
Protocol: Working solution: 5 μL of compound and control stock solution (10 mM in dimethyl sulfoxide (DMSO)) were diluted with 495 μL of acetonitrile (ACN) (intermediate solution concentration: 100 μM, 99% ACN)
NADPH Cofactor Preparation: NADPH powder: β-Nicotinamide adenine dinucleotide phosphate reduced form, tetrasodium salt; NADPH·4Na. The appropriate amount of NADPH powder was weighed and diluted into a 10 mM MgCl2 solution (working solution concentration: 10 unit/mL; final concentration in reaction system: 1 unit/mL)
Liver Microsomes Preparation: The appropriate concentrations of microsome working solutions were prepared in 100 mM potassium phosphate buffer. Cold (4° C.) acetonitrile (ACN) containing 200 ng/mL tolbutamide and 200 ng/mL labetalol as internal standards (1S) was used as the stop solution
Assay Procedure: Pre-warm empty ‘Incubation’ plates T60 and NCF60 for 10 minutes. Dilute liver microsomes to 0.56 mg/mL in 100 mM phosphate buffer. Transfer 445 μL microsome working solutions (0.56 mg/mL) into pre-warmed ‘Incubation’ plates T60 and NCF60, Then pre-incubate ‘Incubation’ plates T60 and NCF60 for 10 min at 37° C. with constant shaking. Transfer 54 μL liver microsomes to blank plate, then add 6 μL NAPDH cofactor to blank plate, and then add 180 μL quenching solution to blank plate. Add 5 μL compound working solution (100 μM) into ‘incubation’ plates (T60 and NCF60) containing microsomes and mix 3 times thoroughly.
For the NCF60 plate, add 50 μL of buffer and mix 3 times thoroughly. Start timing; plate will be incubated at 37° C. for 60 min while shaking. In ‘Quenching’ plate T0, add 180 μL quenching solution and 6 μL NAPDH cofactor. Ensure the plate is chilled to prevent evaporation. For the T60 plate, mix 3 times thoroughly, and immediately remove 54 μL mixture for the 0-min time point to ‘Quenching’ plate. Then add 44 μL NAPDH cofactor to incubation plate (T60). Start timing; plate will be incubated at 37° C. for 60 min while shaking. At 5, 10, 20, 30, and 60 min, add 180 μL quenching solution to ‘Quenching’ plates, mix once, and serially transfer 60 μL sample from T60 plate per time point to ‘Quenching’ plates. For NCF60: mix once, and transfer 60 μL sample from the NCF60 incubation to ‘Quenching’ plate containing quenching solution at the 60-min time point. All sampling plates are shaken for 10 min, then centrifuged at 4000 rpm for 20 minutes at 4° C. Transfer 80 μL supernatant into 240 μL HPLC water, and mix by plate shaker for 10 min. Each bioanalysis plate was sealed and shaken for 10 minutes prior to LC-MS/MS analysis.
The equation of first order kinetics was used to calculate T½ and CLint(mic) (μL/min/mg). Equation of first order kinetics: […]
The biological stability of the compounds of the disclosure can be measured by determining its ½ life in the presence microsomes. Presented in Table 5, is the ½ life of selected compounds of the disclosure in the presence of human liver microsomes (HLM) or mouse liver microsomes (MLM) as described above. In Table 5, ½ life is presented as “++++” (value is greater than 60 minutes), “+++” (value is greater than 30 minutes and less than or equal to 60 minutes), “++” (value is greater than 15 minutes and less than or equal to 30 minutes) and “+” (value is 15 minutes or less).

[2] = Pharmacokinetics in monkeys, single IV or oral administration; type: in vivo, monkey; conditions: for C0 / half-life / Cmax / Tmax: blood; for C0 / half-life / Cmax / Tmax / Cl_obs / F: monkey
Protocol: (§1) The pharmacokinetics of Compound 2R (HCl salt) and Comparative Compound 2 were studied following a single intravenous and/or oral administration to mice, dogs, and monkeys (n=3 for all species). The IV and PO solution formulations for Comparative Compound 2 contained 20% (w/v) propylene glycol, 75% (w/v) 50 mM trisodium phosphate (pH 12), and 5% (w/v) Kolliphor EL. The formulation for Compound 2R contained 1:2 propylene glycol: 1% Tween 80/Na3PO4 (50 mM). Subsequent pharmacokinetic data analysis was performed using non-compartmental analysis modules in Phoenix/WINNONLIN 6.3 (Pharsight, St. Louis, Mo., USA), and the linear trapezoidal rule was used for AUC calculation. Terminal elimination half-life (t½) was calculated based on data points (≥3) in the terminal phase; Tmax=Time of maximum observed concentration; AUClast/D=Area under the concentration-time curve from time zero to the last observed concentration/divided by dose; Cl_obs=Total body clearance; Cmax=maximum observed concentration; F=bioavailability of oral dose form. Blood samples were assayed for compounds using protein precipitation with acetonitrile followed by HPLC/MS/MS analysis. Blood concentration-time data were analyzed by non-compartmental methods.

[3] = Pharmacokinetics in mice, single IV or oral administration; type: in vivo, mouse; conditions: for C0 / half-life / Cmax / Tmax: blood; for C0 / half-life / Cmax / Tmax / Cl_obs / F: mouse
Protocol: as §1

[4] = Pharmacokinetics in dogs, single IV or oral administration; type: in vivo, dog; conditions: for C0 / half-life / Cmax / Tmax: blood; for C0 / half-life / Cmax / Tmax / Cl_obs / F: dog
Protocol: as §1

[5] = system: human CAL-27 (squamous head and neck cancer); experiment: CAL-27 xenograft study in NCR nude mice; type: in vivo; conditions: time to 500 mg vs vehicle
Protocol: Xenograft Studies. Female NCR nude mice (CrTac:NCr-Foxn1nu from Taconic), 6-7 weeks old, were implanted subcutaneously with 5×10^6 cells in a 1:1 serum-free media/Matrigel® mixture into the region of the right axilla. Mice were randomized into treatment groups and treatments initiated when tumors reached 100 to 200 mg. Compound 2R was administered daily by oral gavage as a fine suspension in 1:2 propylene (glycol in 1% Tween80/Na3PO4 based upon individual animal body weight (0.2 mL/20 g). Subcutaneous tumor volume and body weights were measured two to three times a week. Tumor volumes were calculated by measuring two perpendicular diameters with calipers and using the formula: tumor volume=(length×width2)/2. Individual mice were dosed daily until their tumor burden reached 500 mg for the CAL-27 and HCC-70 models or 1000 mg for the CAL-33 model, to allow for calculation of increase in progression-free survival. Percent increase in survival was calculated by comparing the median time to reach either 500 mg or 1000 mg in the treated group versus the vehicle control group. A complete response (CR) is defined as a tumor below the limits of palpation (<40 mg).
FIGS. 1-3 show the performance of Compound 2R in controlling tumor size. […] Tumor growth curves as well as survival and objective response data are summarized in the accompanying FIGS. 1-3 and the table below.

SMILES: CS(=O)(=O)Nc1cc(-c2ccc3ncnc(NCc4ccccc4)c3c2)cnc1Cl [Comparative Compound 1, N-[5-[4-(benzylamino)quinazolin-6-yl]-2-chloro-3-pyridyl]methanesulfonamide, reference compound]
- ½ life minutes (HLM) [1]: ++++ (value is greater than 60 minutes)

SMILES: CS(=O)(=O)Nc1cc(-c2ccc3ncnc(Nc4ccc(F)c(Cl)c4)c3c2)cnc1Cl [Comparative Compound 2, reference compound]
- C0 ([2]; 1 mg/kg, IV, 1 mpk): 5910 ng/mL
- half-life ([2]; 1 mg/kg, IV, 1 mpk): 1.1 h
- Cmax ([2]; 10 mg/kg, oral, 10 mpk): 110 ng/mL
- Tmax ([2]; 10 mg/kg, oral, 10 mpk): 1 h
- half-life ([2]; 10 mg/kg, oral, 10 mpk): 2 h
- Cl_obs ([2]; IV, 1 mpk): 15.71 mL/min/kg
- F ([2]; oral, 10 mpk): 3%
- C0 ([3]; 10 mg/kg, IV, 10 mpk): 25600 ng/mL
- half-life ([3]; 10 mg/kg, IV, 10 mpk): 1.2 h
- Cmax ([3]; 10 mg/kg, oral, 10 mpk): 8270 ng/mL
- Tmax ([3]; 10 mg/kg, oral, 10 mpk): 1 h
- half-life ([3]; 10 mg/kg, oral, 10 mpk): 1.4 h
- Cl_obs ([3]; IV, 10 mpk): 3.3 mL/min/kg
- F ([3]; oral, 10 mpk): 63%
- ½ life minutes (HLM) [1]: ++++ (value is greater than 60 minutes)
- C0 ([4]; 1 mg/kg, IV, 1 mpk): 5490 ng/mL
- half-life ([4]; 1 mg/kg, IV, 1 mpk): 0.7 h
- Cmax ([4]; 5 mg/kg, oral, 5 mpk): 716 ng/mL
- Tmax ([4]; 5 mg/kg, oral, 5 mpk): 2 h
- half-life ([4]; 5 mg/kg, oral, 5 mpk): 0.8 h
- Cl_obs ([4]; IV, 1 mpk): 10.50 mL/min/kg
- F ([4]; oral, 5 mpk): 25%

SMILES: CS(=O)(=O)Nc1cncc(-c2ccc3ncnc(NCc4ccccc4)c3c2)c1 [Comparative Compound 3, reference compound]
- ½ life minutes (HLM) [1]: ++++ (value is greater than 60 minutes)

SMILES: C[C@@H](Nc1ncnc2ccc(-c3cnc(Cl)c(NS(C)(=O)=O)c3)cc12)c1ccccc1 [Compound 2R, N-(2-chloro-5-(4-((1R-phenylethyl)amino)quinazolin-6-yl)pyridin-3-yl)methanesulfonamide]
- C0 ([2]; 1 mg/kg, IV, 1 mpk): 4170 ng/mL
- half-life ([2]; 1 mg/kg, IV, 1 mpk): 2.3 h
- Cmax ([2]; 10 mg/kg, oral, 10 mpk): 4710 ng/mL
- Tmax ([2]; 10 mg/kg, oral, 10 mpk): 2 h
- half-life ([2]; 10 mg/kg, oral, 10 mpk): 4 h
- Cl_obs ([2]; IV, 1 mpk): 4.81 mL/min/kg
- F ([2]; oral, 10 mpk): 59%
- increase in exposure (AUClast/D) compared to Comparative Compound 2 ([2]; monkeys, IV): ~3 fold
- improvement in exposure (AUClast/D) relative to Comparative Compound 2 ([2]; monkeys, oral): > 74 fold
- C0 ([3]; 5 mg/kg, IV, 5 mpk): 25700 ng/mL
- half-life ([3]; 5 mg/kg, IV, 5 mpk): 2.5 h
- Cmax ([3]; 25 mg/kg, oral, 25 mpk): 21700 ng/mL
- Tmax ([3]; 25 mg/kg, oral, 25 mpk): 4.17 h
- half-life ([3]; 25 mg/kg, oral, 25 mpk): 4.9 h
- increase in exposure (AUClast/D) compared to Comparative Compound 2 ([3]; mice, IV): ~3 fold
- enhanced exposure relative to Comparative Compound 2 ([3]; mice, oral): 3 fold
- Cl_obs ([3]; IV, 5 mpk): 1.2 mL/min/kg
- F ([3]; oral, 25 mpk): 83%
- Median Increase In Survival ([5]; CAL-27, 10 mg/kg daily oral gavage): 328%
- Median Increase In Survival ([5]; CAL-27, 100 mg/kg daily oral gavage): >700%
- ½ life minutes (HLM) [1]: ++++ (value is greater than 60 minutes)
- C0 ([4]; 1 mg/kg, IV, 1 mpk): 7150 ng/mL
- half-life ([4]; 1 mg/kg, IV, 1 mpk): 10.4 h
- Cmax ([4]; 5 mg/kg, oral, 5 mpk): 7090 ng/mL
- Tmax ([4]; 5 mg/kg, oral, 5 mpk): 2 h
- half-life ([4]; 5 mg/kg, oral, 5 mpk): 12 h
- Cl_obs ([4]; IV, 1 mpk): 0.52 mL/min/kg
- F ([4]; oral, 5 mpk): 48%
- increase in exposure (AUClast/D) compared to Comparative Compound 2 ([4]; dogs, dosed intravenously): ~15 fold
- improvement in exposure (AUClast/D) relative to Comparative Compound 2 ([4]; dogs, oral): > 28 fold

SMILES: C[C@H](Nc1ncnc2ccc(-c3cnc(Cl)c(NS(C)(=O)=O)c3)cc12)c1ccccc1 [Compound 2S, N-(2-chloro-5-(4-((1S-phenylethyl)amino)quinazolin-6-yl)pyridin-3-yl)methanesulfonamide]
- ½ life minutes (HLM) [1]: ++++ (value is greater than 60 minutes)

SMILES: CC(Nc1c(C#N)cnc2ccc(-c3cnc(N)nc3)cc12)c1ccccc1 (centres unmarked) [Compound 53, 6-(2-aminopyrimidin-5-yl)-4-(1-phenylethylamino) quinoline-3-carbonitrile]
- ½ life minutes (HLM) [1]: ++++ (value is greater than 60 minutes)

SMILES: C[C@@H](Nc1c(C#N)cnc2ccc(-c3cnc(N)nc3)cc12)c1ccccc1 [Compound 53R, (R)-6-(2-aminopyrimidin-5-yl)-4-((1-phenylethyl)amino)quinoline-3-carbonitrile]
- ½ life minutes (HLM) [1]: +++ (value is greater than 30 minutes and less than or equal to 60 minutes)

SMILES: CC(Nc1c(C#N)cnc2ccc(-c3cnc4[nH]ncc4c3)cc12)c1ccccc1 (centres unmarked) [Compound 54, 4-(1-phenylethylamino)-6-(1H-pyrazolo[3,4-b]pyridin-5-yl)quinoline-3-carbonitrile]
- ½ life minutes (HLM) [1]: +++ (value is greater than 30 minutes and less than or equal to 60 minutes)

SMILES: C[C@@H](Nc1ncnc2ccc(-c3cnc(Cl)c(NS(C)(=O)=O)c3)cc12)c1ccc(F)cc1 [Compound 111R, N-(2-chloro-5-(4-((1R-(4-fluorophenyl)ethyl)amino)quinazolin-6-yl)pyridin-3-yl)methanesulfonamide]
- ½ life minutes (HLM) [1]: ++++ (value is greater than 60 minutes)
